Data reported in ChEMBL document CHEMBL1914445 (Eur J Med Chem, 2011).

Tests used:
Acetylcholinesterase [1] = biological target: T1, Acetylcholinesterase (Homo sapiens, UniProt P22303); assay: Inhibition of human recombinant AChE using acetylthiocholine as substrate by Ellman's assay
SH-SY5Y [2] = assay: Neuroprotective activity against amyloid beta(25-32)-induced toxicity in human SH-SY5Y cells assessed as reduction in cell viability at 3 uM preincubated for 24 hrs measured after 24 hrs by MTT assay; assay type: functional
SH-SY5Y [3] = assay: Neuroprotective activity against amyloid beta(25-32)-induced toxicity in human SH-SY5Y cells assessed as reduction in cell viability at 1 uM preincubated for 24 hrs measured after 24 hrs by MTT assay; assay type: functional
SH-SY5Y [4] = assay: Neuroprotective activity against amyloid beta(25-32)-induced toxicity in human SH-SY5Y cells assessed as reduction in cell viability at 0.3 uM preincubated for 24 hrs measured after 24 hrs by MTT assay; assay type: functional
Acetylcholinesterase [5] = biological target: T2, Acetylcholinesterase (Electrophorus electricus, UniProt O42275); assay: Mixed-type inhibition of Electrophorus electricus AChE assessed as hydrolysis of acetylthiocholine by Lineweaver-Burk plot analysis
Cholinesterase [6] = biological target: T3, Cholinesterase (Equus caballus, UniProt P81908); assay: Inhibition of equine serum BuChE using butyrylthiocholine iodide as substrate preincubated for 10 mins before substrate addition by Ellman's method
Cholinesterase [7] = biological target: T4, Cholinesterase (Homo sapiens, UniProt P06276); assay: Inhibition of human serum BuChE using butyrylthiocholine as substrate by Ellman's assay
Homo sapiens = organism: Homo sapiens; assay: Selectivity ratio of IC50 for human […]
Acetylcholinesterase [8] = biological target: T2, Acetylcholinesterase
Description: Inhibition of Electrophorus electricus AChE using acetylthiocholine iodide as substrate preincubated for 10 mins before substrate addition by Ellman's method

Acetylcholinesterase [9] = biological target: T2, Acetylcholinesterase; remark: listed apart in the source
Description: Inhibition of Electrophorus electricus AChE using acetylthiocholine iodide as substrate preincubated for 10 mins before substrate addition by Ellman's method in presence of bovine serum albumin

Cholinesterase [10] = biological target: T4, Cholinesterase; assay: Inhibition of human serum BuChE using butyrylthiocholine as substrate by Ellman's assay in presence of bovine serum albumin
Cholinesterase [11] = biological target: T3, Cholinesterase
Description: Inhibition of equine serum BuChE using butyrylthiocholine iodide as substrate preincubated for 10 mins before substrate addition by Ellman's method in presence of bovine serum albumin

Acetylcholinesterase [12] = biological target: T1, Acetylcholinesterase; assay: Inhibition of human recombinant AChE using acetylthiocholine as substrate by Ellman's assay in presence of bovine serum albumin

T2 sequence (O42275 whole entry): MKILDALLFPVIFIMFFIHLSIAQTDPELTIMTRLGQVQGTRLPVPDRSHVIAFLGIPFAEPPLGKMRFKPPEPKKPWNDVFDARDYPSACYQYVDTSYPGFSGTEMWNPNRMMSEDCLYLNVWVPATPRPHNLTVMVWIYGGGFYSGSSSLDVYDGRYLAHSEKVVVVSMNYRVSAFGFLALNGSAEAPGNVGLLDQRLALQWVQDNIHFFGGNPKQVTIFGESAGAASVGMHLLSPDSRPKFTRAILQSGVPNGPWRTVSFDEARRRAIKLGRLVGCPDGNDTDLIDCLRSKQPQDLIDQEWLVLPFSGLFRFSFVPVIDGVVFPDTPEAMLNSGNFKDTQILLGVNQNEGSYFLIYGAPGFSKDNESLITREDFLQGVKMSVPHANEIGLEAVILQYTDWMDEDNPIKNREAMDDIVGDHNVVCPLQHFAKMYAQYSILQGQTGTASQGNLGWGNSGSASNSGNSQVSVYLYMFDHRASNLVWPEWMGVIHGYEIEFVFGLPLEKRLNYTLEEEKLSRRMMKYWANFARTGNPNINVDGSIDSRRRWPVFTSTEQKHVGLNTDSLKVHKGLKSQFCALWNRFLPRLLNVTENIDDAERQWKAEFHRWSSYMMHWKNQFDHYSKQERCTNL
T1 sequence (P22303 whole entry): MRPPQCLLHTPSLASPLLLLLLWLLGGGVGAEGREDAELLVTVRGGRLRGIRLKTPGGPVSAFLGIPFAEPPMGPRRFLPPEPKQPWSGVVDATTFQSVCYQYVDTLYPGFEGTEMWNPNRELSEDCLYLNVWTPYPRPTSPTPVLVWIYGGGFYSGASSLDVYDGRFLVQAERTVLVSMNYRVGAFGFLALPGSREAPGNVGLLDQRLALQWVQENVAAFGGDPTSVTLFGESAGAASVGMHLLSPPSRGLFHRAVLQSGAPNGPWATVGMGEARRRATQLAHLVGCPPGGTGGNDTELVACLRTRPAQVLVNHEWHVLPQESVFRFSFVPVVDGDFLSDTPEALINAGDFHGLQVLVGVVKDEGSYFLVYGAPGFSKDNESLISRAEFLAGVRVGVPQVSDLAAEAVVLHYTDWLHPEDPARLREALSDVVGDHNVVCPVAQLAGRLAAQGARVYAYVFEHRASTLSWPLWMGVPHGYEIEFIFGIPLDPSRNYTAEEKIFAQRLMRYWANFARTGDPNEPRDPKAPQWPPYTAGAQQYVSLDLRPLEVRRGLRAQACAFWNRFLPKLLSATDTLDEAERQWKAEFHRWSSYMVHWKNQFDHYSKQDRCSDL
T4 sequence (P06276 whole entry): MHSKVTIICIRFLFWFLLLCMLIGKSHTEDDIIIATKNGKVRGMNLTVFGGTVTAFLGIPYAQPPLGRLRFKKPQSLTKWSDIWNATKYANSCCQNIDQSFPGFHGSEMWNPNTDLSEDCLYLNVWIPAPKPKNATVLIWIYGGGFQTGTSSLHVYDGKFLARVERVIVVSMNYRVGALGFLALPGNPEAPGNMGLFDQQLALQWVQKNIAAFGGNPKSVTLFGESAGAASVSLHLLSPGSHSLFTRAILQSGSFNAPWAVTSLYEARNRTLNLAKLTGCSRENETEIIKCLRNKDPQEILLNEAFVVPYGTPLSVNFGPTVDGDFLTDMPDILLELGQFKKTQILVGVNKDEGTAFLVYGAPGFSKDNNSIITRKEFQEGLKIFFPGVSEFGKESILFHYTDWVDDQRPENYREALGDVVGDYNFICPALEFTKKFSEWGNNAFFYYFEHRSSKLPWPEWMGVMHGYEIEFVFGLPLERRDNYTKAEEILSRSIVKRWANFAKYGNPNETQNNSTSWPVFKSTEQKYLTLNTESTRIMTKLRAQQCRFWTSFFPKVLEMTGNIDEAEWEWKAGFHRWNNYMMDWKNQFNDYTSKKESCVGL
T3 sequence (P81908 whole entry): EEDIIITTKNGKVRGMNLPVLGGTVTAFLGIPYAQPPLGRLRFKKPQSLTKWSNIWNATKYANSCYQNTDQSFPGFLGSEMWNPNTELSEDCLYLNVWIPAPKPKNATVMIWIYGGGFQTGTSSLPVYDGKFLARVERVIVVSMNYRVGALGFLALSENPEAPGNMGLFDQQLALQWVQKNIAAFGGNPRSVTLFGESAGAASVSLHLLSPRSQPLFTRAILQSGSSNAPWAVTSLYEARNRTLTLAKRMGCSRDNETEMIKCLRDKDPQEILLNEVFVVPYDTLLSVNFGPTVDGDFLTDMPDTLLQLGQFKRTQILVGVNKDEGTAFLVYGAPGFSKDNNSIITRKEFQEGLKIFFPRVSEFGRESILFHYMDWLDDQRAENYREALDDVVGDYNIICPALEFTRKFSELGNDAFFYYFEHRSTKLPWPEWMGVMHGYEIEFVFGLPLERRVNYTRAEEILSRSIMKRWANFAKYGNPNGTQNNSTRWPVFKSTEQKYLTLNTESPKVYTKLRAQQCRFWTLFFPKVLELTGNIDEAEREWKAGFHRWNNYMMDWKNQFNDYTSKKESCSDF

SMILES | IC50 (Acetylcholinesterase [1]) | IC50 (Cholinesterase [6]) | IC50 (Cholinesterase [7]) | IC50 (Acetylcholinesterase [8]) | IC50 (Acetylcholinesterase [9]) | IC50 (Cholinesterase [11]) | further results
Nc1c2c(nc3c1cc(-c1ccccc1)n3-c1ccccc1)CCCC2 | 45.5 µM | 0.074 µM | 8.57 µM | 0.61 µM | – | – | Activity (SH-SY5Y [2]): 23.7%; Activity (SH-SY5Y [3]): 19%; Activity (SH-SY5Y [4]): 11.4%; Ki (Acetylcholinesterase [5]): 0.621 µM; Ratio IC50 (Homo sapiens): 5
N#Cc1c(-c2ccc(Cl)cc2)oc2nc3c(c(N)c12)CCCC3 | – | – | – | – | > 100 µM | 32.4 µM | IC50 (Cholinesterase [10]): > 100 µM; IC50 (Acetylcholinesterase [12]): > 100 µM
Nc1c2c(nc3c1cc(-c1ccccc1)n3-c1ccccc1)CCCCC2 | – | – | – | – | > 30 µM | 1.1 µM | –
Nc1c2c(nc3c1cc(-c1ccc(Cl)cc1)n3-c1ccccc1)CCCC2 | – | – | – | – | 24 µM | 15 µM | –
Nc1c2c(nc3oc(-c4ccc(Cl)cc4)cc13)CCCC2 | > 100 µM | 23 µM | 26.1 µM | > 100 µM | – | – | –
Nc1c2c(nc3oc(-c4ccccc4)cc13)CCCCC2 | – | 6 µM | – | > 100 µM | – | – | –
Cc1ccc(-c2cc3c(N)c4c(nc3o2)CCCC4)cc1 | > 100 µM | 2.9 µM | 119 µM | > 100 µM | – | – | –
Cc1ccc(-c2cc3c(N)c4c(nc3o2)CCCCC4)cc1 | – | – | – | – | > 30 µM | 13 µM | –
Nc1c2c(nc3oc(-c4ccc(Cl)cc4)cc13)CCCCC2 | – | – | – | – | > 100 µM | 43 µM | –
Nc1c2c(nc3oc(-c4ccccc4)cc13)CCCC2 | > 100 µM | 3.6 µM | 3.78 µM | > 100 µM | – | – | –
